# Test results taken from the NIST ThermoML archive (doi:10.1021/je800335v).
# ± gives the expanded uncertainty stated by the source.
# Assays:
# [1] = molar heat capacity at constant pressure; xn = mol fraction of the nth substance listed; conditions: 298 K, 101 kPa, Liquid, Small sample (50 mg) DSC
# [2] = molar heat capacity at constant pressure; conditions: 101.33 kPa, Liquid, Small sample (50 mg) DSC
SMILES,molar heat capacity at constant pressure ([2]; 293 K) [J/K/mol],molar heat capacity at constant pressure ([2]; 298 K) [J/K/mol],molar heat capacity at constant pressure ([2]; 303 K) [J/K/mol],molar heat capacity at constant pressure ([2]; 308 K) [J/K/mol],molar heat capacity at constant pressure ([2]; 313 K) [J/K/mol],molar heat capacity at constant pressure ([2]; 318 K) [J/K/mol],molar heat capacity at constant pressure ([2]; 323 K) [J/K/mol],molar heat capacity at constant pressure ([2]; 328 K) [J/K/mol],molar heat capacity at constant pressure ([2]; 333 K) [J/K/mol],molar heat capacity at constant pressure ([2]; 338 K) [J/K/mol],molar heat capacity at constant pressure ([2]; 343 K) [J/K/mol],molar heat capacity at constant pressure ([2]; 348 K) [J/K/mol],molar heat capacity at constant pressure ([2]; 353 K) [J/K/mol],molar heat capacity at constant pressure ([2]; 358 K) [J/K/mol],other results
CCCCn1cc[n+](C)c1.O=S(=O)([O-])C(F)(F)F [1-butyl-3-methylimidazolium trifluoromethanesulfonate] + O,,,,,,,,,,,,,,,molar heat capacity at constant pressure ([1]; x2 = 0.0108): 448 ± 23 J/K/mol; molar heat capacity at constant pressure ([1]; x2 = 0.137): 401 ± 21 J/K/mol; molar heat capacity at constant pressure ([1]; x2 = 0.3379): 325 ± 17 J/K/mol; molar heat capacity at constant pressure ([1]; x2 = 0.5215): 257 ± 13 J/K/mol
CCCCCC[n+]1ccn(C)c1.O=S(=O)([N-]S(=O)(=O)C(F)(F)F)C(F)(F)F,669 ± 35,667 ± 35,667 ± 35,668 ± 35,671 ± 35,673 ± 35,675 ± 35,676 ± 35,679 ± 35,680 ± 35,683 ± 35,685 ± 36,687 ± 36,689 ± 36,
CCCC[n+]1ccn(C)c1.O=S(=O)([N-]S(=O)(=O)C(F)(F)F)C(F)(F)F + CCCCn1cc[n+](C)c1.[Cl-],,,,,,,,,,,,,,,molar heat capacity at constant pressure ([1]; x2 = 0.0919): 549 ± 29 J/K/mol; molar heat capacity at constant pressure ([1]; x2 = 0.2394): 515 ± 27 J/K/mol; molar heat capacity at constant pressure ([1]; x2 = 0.4129): 468 ± 24 J/K/mol; molar heat capacity at constant pressure ([1]; x2 = 0.5832): 420 ± 22 J/K/mol
CCCC[N+]1(C)CCCC1.O=S(=O)([N-]S(=O)(=O)C(F)(F)F)C(F)(F)F,630 ± 33,629 ± 33,632 ± 33,639 ± 33,644 ± 33,650 ± 34,654 ± 34,656 ± 34,659 ± 34,661 ± 34,660 ± 34,659 ± 34,658 ± 34,,
CCOS(=O)(=O)[O-].CCn1cc[n+](C)c1 [1-ethyl-3-methylimidazolium ethyl sulfate],388 ± 20,389 ± 20,391 ± 20,394 ± 20,398 ± 21,402 ± 21,406 ± 21,410 ± 21,415 ± 22,420 ± 22,427 ± 22,433 ± 23,440 ± 23,447 ± 23,
CCCCCCCCCCCCCC[P+](CCCCCC)(CCCCCC)CCCCCC.O=S(=O)([N-]S(=O)(=O)C(F)(F)F)C(F)(F)F,1366 ± 71,1366 ± 71,1368 ± 71,1372 ± 71,1379 ± 72,1384 ± 72,1389 ± 72,1389 ± 72,1395 ± 72,1397 ± 73,1402 ± 73,1405 ± 73,1409 ± 73,1413 ± 73,
CCn1cc[n+](C)c1.O=S(=O)([N-]S(=O)(=O)C(F)(F)F)C(F)(F)F,523 ± 27,525 ± 27,527 ± 27,529 ± 27,533 ± 28,535 ± 28,538 ± 28,539 ± 28,542 ± 28,545 ± 28,547 ± 28,548 ± 28,550 ± 29,551 ± 29,
CCCC[n+]1ccn(C)c1.O=S(=O)([N-]S(=O)(=O)C(F)(F)F)C(F)(F)F,595 ± 31,599 ± 31,603 ± 31,607 ± 32,612 ± 32,617 ± 32,621 ± 32,624 ± 32,628 ± 33,631 ± 33,634 ± 33,636 ± 33,639 ± 33,641 ± 33,
CCCCn1cc[n+](C)c1.O=S(=O)([O-])C(F)(F)F [1-butyl-3-methylimidazolium trifluoromethanesulfonate],455 ± 24,457 ± 24,459 ± 24,461 ± 24,465 ± 24,469 ± 24,473 ± 25,477 ± 25,481 ± 25,486 ± 25,490 ± 25,495 ± 26,500 ± 26,504 ± 26,
CCCC[N+]1(C)CCCC1.FC(F)(F)C(F)(F)[P-](F)(F)(F)(C(F)(F)C(F)(F)F)C(F)(F)C(F)(F)F,767 ± 40,769 ± 40,773 ± 40,776 ± 40,781 ± 41,785 ± 41,788 ± 41,791 ± 41,796 ± 41,799 ± 42,803 ± 42,806 ± 42,809 ± 42,812 ± 42,
CCCCCCCCn1cc[n+](C)c1.O=S(=O)([N-]S(=O)(=O)C(F)(F)F)C(F)(F)F,724 ± 38,733 ± 38,741 ± 39,748 ± 39,756 ± 39,765 ± 40,773 ± 40,779 ± 40,788 ± 41,795 ± 41,803 ± 42,810 ± 42,817 ± 42,825 ± 43,
